pIC50: −log10 of the molar value. Read-outs that look alike come from different tables or passages of the source.
Experiments:
[1] = target: biotinylated Avi-POLθ[2-894] (Homo sapiens (Human), UniProt O75417); experiment: POLθ ATPase assay (ADP-Glo); details: n=2, read-out: Biochemical ATPase ADPGlo IC50
DLD1 BRCA2 (−/−) cells = experiment: 7-day cell viability assay (CellTiter-Glo), DLD1 BRCA2 (−/−); assay type: cell-based, human; details: n=2, read-out: Viability IC50 (uM) DLD1 BRCA2 null
In short: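 7-day growth assay in DLD1 cells with or without BRCA2; seeding densities chosen to keep log-linear growth. Compound: 10 uM top, 3-fold, 9 points. Endpoint: CTG ATP luminescence at RT.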

DLD1 WT cells = experiment: 7-day cell viability assay (CellTiter-Glo), DLD1 parental (WT); assay type: cell-based, human; details: n=2
[2] = Homo sapiens, DLD-1, 168 h, 7-day viability
[3] = Homo sapiens, DLD-1, 168 h, 7-day CellTiter-Glo

Chain of biotinylated Avi-POLθ[2-894] (O75417 2-894): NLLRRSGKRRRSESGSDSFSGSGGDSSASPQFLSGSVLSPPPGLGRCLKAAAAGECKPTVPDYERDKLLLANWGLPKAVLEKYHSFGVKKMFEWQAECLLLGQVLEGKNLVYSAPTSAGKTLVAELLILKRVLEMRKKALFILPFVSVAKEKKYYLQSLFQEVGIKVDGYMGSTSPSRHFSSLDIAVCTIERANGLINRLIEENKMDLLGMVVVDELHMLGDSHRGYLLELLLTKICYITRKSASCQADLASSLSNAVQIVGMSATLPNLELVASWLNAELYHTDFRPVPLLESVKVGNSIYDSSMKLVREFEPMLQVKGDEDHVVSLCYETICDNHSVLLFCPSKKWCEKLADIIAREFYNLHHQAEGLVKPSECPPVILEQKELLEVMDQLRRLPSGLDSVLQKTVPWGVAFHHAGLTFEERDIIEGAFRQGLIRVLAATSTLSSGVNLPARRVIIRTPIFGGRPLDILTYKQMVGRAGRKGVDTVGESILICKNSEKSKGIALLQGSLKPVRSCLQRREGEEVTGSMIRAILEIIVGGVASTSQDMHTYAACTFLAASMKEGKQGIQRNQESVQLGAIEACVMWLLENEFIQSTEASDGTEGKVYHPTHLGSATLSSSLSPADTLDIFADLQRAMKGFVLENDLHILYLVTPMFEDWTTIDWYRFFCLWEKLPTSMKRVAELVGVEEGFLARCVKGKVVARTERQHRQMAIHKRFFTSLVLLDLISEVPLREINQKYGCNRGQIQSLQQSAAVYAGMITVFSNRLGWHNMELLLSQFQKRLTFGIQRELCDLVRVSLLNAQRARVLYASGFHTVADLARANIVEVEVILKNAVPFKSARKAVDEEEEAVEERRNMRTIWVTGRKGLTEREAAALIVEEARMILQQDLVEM

SMILES	pIC50 [1]	IC50 (DLD1 BRCA2 (−/−) cells; [2])	pIC50 ([1]; POLθ ATPase, ADP-Glo)	IC50 (DLD1 BRCA2 (−/−) cells; [3])	IC50 (DLD1 WT cells; [2])	IC50 (DLD1 WT cells; [3])	also measured
COc1cnc(Cl)cc1-c1cc(C)ncc1C(=O)Nc1nc2c(s1)CC(N[C@H]1C[C@H](O)C1)CC2 (stereo partly drawn) [Example 141, 2′-Chloro-N-(6-(((1r,3r)-3-hydroxycyclobutyl)amino)-4,5,6,7-tetrahydrobenzo[d]thiazol-2-yl)-5′-methoxy-6-methyl-[4.4′-bipyridine]-3-carboxamide]	7.82 to 9.00						IC50 (DLD1 BRCA2 (−/−) cells; 7-day viability): 0.001 to 0.1 µM; IC50 (DLD1 WT cells; 7-day viability): ≥ 10 µM
COc1cnc(Cl)cc1-c1cc(C)ncc1C(=O)Nc1nc2c(s1)CN(C(=O)[C@H]1C[C@H](OC(F)(F)F)C1)C2 [Example 26, 2′-chloro-5′-methoxy-6-methyl-N-(5-((1r,3r)-3-(trifluoromethoxy)cyclobutane-1-carbonyl)-5,6-dihydro-4H-pyrrolo[3,4-d]thiazol-2-yl)-[4,4′-bipyridine]-3-carboxamide]	7.82 to 9.00	0.001 to 0.1 µM			5 to 10 µM		
COc1cc(C(=O)N2Cc3nc(NC(=O)c4cnc(C)cc4-c4cc(C#N)ccc4OC)sc3C2)ccc1Cl			7.82 to 9.00	0.001 to 0.1 µM		5 to 10 µM	
COc1cnc(Cl)cc1-c1cc(C)ncc1C(=O)Nc1nc2c(s1)CN(C(=O)C1CCC(OC(F)F)C1)C2 (stereo not drawn)	7.82 to 9.00	0.001 to 0.1 µM			≥ 10 µM		
COc1cc(Cl)cc(C(=O)N2Cc3nc(NC(=O)c4cnc(C)cc4-c4cc(Cl)ncc4OC)sc3C2)n1			7.82 to 9.00	0.001 to 0.1 µM		≥ 10 µM	
COc1cnc(Cl)cc1-c1cc(C)ncc1C(=O)Nc1nc2c(s1)CN(C(=O)[C@H]1C[C@@H](OC(F)F)C1)C2 [Example 10, 2′-chloro-N-(5-((1s,3s)-3-(difluoromethoxy)cyclobutane-1-carbonyl)-5,6-dihydro-4H-pyrrolo[3,4-d]thiazol-2-yl)-5′-methoxy-6-methyl-[4,4′-bipyridine]-3-carboxamide]	7.82 to 9.00	0.001 to 0.1 µM			≥ 10 µM		
COc1cnc(Cl)cc1-c1cc(C)ncc1C(=O)Nc1nc2c(s1)CN(C(=O)c1nccn3nccc13)C2			7.82 to 9.00	0.001 to 0.1 µM		≥ 10 µM	
COc1ccc(Cl)c(C(=O)N2Cc3nc(NC(=O)c4cnc(C)cc4-c4cc(Cl)ncc4OC)sc3C2)n1			7.82 to 9.00	0.001 to 0.1 µM		≥ 10 µM	
COc1cnc(Cl)cc1-c1cc(C)ncc1C(=O)Nc1nc2c(s1)CN(C(=O)C1CC3(CCC3)C1)C2 [Example 8, 2′-chloro-5′-methoxy-6-methyl-N-(5-(spiro[3.3]heptane-2-carbonyl)-5,6-dihydro-4H-pyrrolo[3,4-d]thiazol-2-yl)-[4,4′-bipyridine]-3-carboxamide]	7.82 to 9.00	0.001 to 0.1 µM			5 to 10 µM		
COc1cnc(Cl)cc1-c1cc(C)ncc1C(=O)Nc1nc2c(s1)CN(C(=O)c1cnc(C)cn1)C2			7.82 to 9.00	0.001 to 0.1 µM		2 to 5 µM	
COc1nnc(Cl)cc1-c1cc(C)ncc1C(=O)Nc1nc2c(s1)CN(C(=O)c1ccc(C(F)F)cn1)C2			7.82 to 9.00	0.001 to 0.1 µM		≥ 10 µM	
COc1ccc(C#N)cc1-c1cc(C)ncc1C(=O)Nc1nc2c(s1)CN(S(=O)(=O)N1CCCC1)C2	7.82 to 9.00	0.5 to 2 µM			≥ 10 µM		
COc1cnc(Cl)cc1-c1cc(C)ncc1C(=O)Nc1nc2c(s1)CN(C(=O)c1ccc(OC(F)F)nc1Cl)C2			7.82 to 9.00	0.001 to 0.1 µM		≥ 10 µM	
COc1cnc(C(F)F)c(C(=O)N2Cc3nc(NC(=O)c4cnc(C)cc4-c4cc(Cl)ncc4OC)sc3C2)n1 [Example 503, 2′-Chloro-N-(5-(3-(difluoromethyl)-6-methoxypyrazine-2-carbonyl)-5,6-dihydro-4H-pyrrolo[3,4-d]thiazol-2-yl)-5′-methoxy-6-methyl-[4,4′-bipyridine]-3-carboxamdie]			7.82 to 9.00				IC50 (DLD1 BRCA2 (−/−) cells; 7-day CellTiter-Glo): 0.001 to 0.1 µM; IC50 (DLD1 WT cells; 7-day CellTiter-Glo): ≥ 10 µM
COc1cnc(Cl)cc1-c1cc(C)ncc1C(=O)Nc1nc2c(s1)CN(C(=O)c1ncc(Br)cc1OC)C2			7.82 to 9.00	0.1 to 0.25 µM		≥ 10 µM	
COc1cnc(Cl)cc1-c1cc(C)ncc1C(=O)Nc1nc2c(s1)CN(C(=O)c1cc(C)nn1C(F)F)C2	7.82 to 9.00	0.1 to 0.25 µM			≥ 10 µM		
COc1ccccc1-c1cc(C)ncc1C(=O)Nc1nc2c(s1)CNCC2	≤ 6.05	≥ 2 µM			≥ 10 µM		
COc1ccc(C#N)cc1-c1cc(C)ncc1C(=O)Nc1nc2c(s1)CN(C(=O)c1ccncc1C)C2	7.82 to 9.00	≥ 2 µM			≥ 10 µM		
COc1cnc(Cl)cc1-c1cc(C)ncc1C(=O)Nc1nc2c(s1)CN(C(=O)c1ccncc1)C2	7.82 to 9.00	0.25 to 0.5 µM			≥ 10 µM		
COc1cnc(Cl)cc1-c1cc(C)ncc1C(=O)Nc1nc2c(s1)CN(C(=O)c1ncc(C(F)(F)F)cc1Cl)C2 [Example 16, 2′-chloro-N-(5-(3-chloro-5-(trifluoromethyl)picolinoyl)-5,6-dihydro-4H-pyrrolo[3,4-d]thiazol-2-yl)-5′-methoxy-6-methyl-[4,4′-bipyridine]-3-carboxamide]	7.82 to 9.00	0.001 to 0.1 µM			≥ 10 µM		

Second part, led by results:

pIC50 [1]	IC50 (DLD1 BRCA2 (−/−) cells; [2])	pIC50 ([1]; POLθ ATPase, ADP-Glo)	IC50 (DLD1 BRCA2 (−/−) cells; [3])	SMILES	IC50 (DLD1 WT cells; [2])	IC50 (DLD1 WT cells; [3])	also measured
7.82 to 9.00	0.001 to 0.1 µM			COc1cnc(Cl)cc1-c1cc(C)ncc1C(=O)Nc1nc2c(s1)CN(C(=O)c1ncc(C)o1)C2 [Example 45, 2′-chloro-5′-methoxy-6-methyl-N-(5-(5-methyloxazole-2-carbonyl)-5,6-dihydro-4H-pyrrolo[3,4-d]thiazol-2-yl)-[4,4′-bipyridine]-3-carboxamide]	2 to 5 µM		
		7.82 to 9.00	0.001 to 0.1 µM	COc1cnc(Cl)cc1-c1cc(C)ncc1C(=O)Nc1nc2c(s1)C(C)N(C(=O)c1ccc(C(F)(F)F)nc1OC)C2 (single isomer, unassigned) [Example 1046, (R or S)-2′-chloro-5′-methoxy-N-(5-(2-methoxy-6-(trifluoromethyl)nicotinoyl)-6-methyl-5,6-dihydro-4H-pyrrolo[3,4-d]thiazol-2-yl)-6-methyl-[4,4′-bipyridine]-3-carboxamide]		≥ 10 µM	
7.82 to 9.00	0.001 to 0.1 µM			COc1ccc(C#N)cc1-c1cc(C)ncc1C(=O)Nc1nc2c(s1)CN(C(=O)c1ccc(C(F)F)cn1)C2 [Example 122]	5 to 10 µM		
7.82 to 9.00	0.001 to 0.1 µM			COc1cnc(Cl)cc1-c1cc(C)ncc1C(=O)Nc1nc2c(s1)CN(C(=O)c1nc(C)co1)C2 [Example 67, 2′-chloro-5′-methoxy-6-methyl-N-(5-(4-methyloxazole-2-carbonyl)-5,6-dihydro-4H-pyrrolo[3,4-d]thiazol-2-yl)-[4,4′-bipyridine]-3-carboxamide]	0.5 to 2 µM		
7.82 to 9.00	0.001 to 0.1 µM			COc1cnc(Cl)cc1-c1cc(C)ncc1C(=O)Nc1nc2c(s1)CN(C(=O)c1cc(Cl)n(C)n1)C2 [Example 73, 2′-chloro-N-(5-(5-chloro-1-methyl-1H-pyrazole-3-carbonyl)-5,6-dihydro-4H-pyrrolo[3,4-d]thiazol-2-yl)-5′-methoxy-6-methyl-[4,4′-bipyridine]-3-carboxamide]	0.001 to 0.5 µM		
		7.82 to 9.00	0.001 to 0.1 µM	COc1cnc(Cl)cc1-c1cc(C)ncc1C(=O)Nc1nc2c(s1)CN(C(=O)c1cc(C(F)F)ccc1F)C2 [Example 398, 2′-chloro-N-(5-(5-(difluoromethyl)-2-fluorobenzoyl)-5,6-dihydro-4H-pyrrolo[3,4-d]thiazol-2-yl)-5′-methoxy-6-methyl-[4,4′-bipyridine]-3-carboxamide]		≥ 10 µM	
7.82 to 9.00	0.001 to 0.1 µM			COc1cnc(Cl)cc1-c1cc(C)ncc1C(=O)Nc1nc2c(s1)CN(C(=O)c1ncc(C(F)(F)F)cc1OC)C2 [Example 38, 2′-chloro-5′-methoxy-N-(5-(3-methoxy-5-(trifluoromethyl)picolinoyl)-5,6-dihydro-4H-pyrrolo[3,4-d]thiazol-2-yl)-6-methyl-[4,4′-bipyridine]-3-carboxamide]	≥ 10 µM		
7.82 to 9.00	0.001 to 0.1 µM			COc1cnc(Cl)cc1-c1cc(C)ncc1C(=O)Nc1nc2c(s1)CN(C(=O)c1cc(C)n(C(F)F)n1)C2 [Example 52, 2′-chloro-N-(5-(1-(difluoromethyl)-5-methyl-1H-pyrazole-3-carbonyl)-5,6-dihydro-4H-pyrrolo[3,4-d]thiazol-2-yl)-5′-methoxy-6-methyl-[4,4′-bipyridine]-3-carboxamide]	≥ 10 µM		
7.82 to 9.00	0.5 to 2 µM			COc1cnc(Cl)cc1-c1cc(C)ncc1C(=O)Nc1nc2c(s1)CN(C(=O)c1cn(C)nc1Cl)C2 [Example 161]	≥ 10 µM		
7.82 to 9.00	0.1 to 0.25 µM			COc1cnc(Cl)cc1-c1cc(C)ncc1C(=O)Nc1nc2c(s1)CN(C(=O)c1ccc(O)cn1)C2 [Example 174]	≥ 10 µM		
7.82 to 9.00	0.001 to 0.1 µM			COc1cnc(Cl)cc1-c1cc(C)ncc1C(=O)Nc1nc2c(s1)CN(C(=O)C1CC(CC(F)F)C1)C2 (stereo not drawn) [Example 177]	≥ 10 µM		
		7.82 to 9.00	0.001 to 0.1 µM	COc1cnc(Cl)cc1-c1cc(C)ncc1C(=O)Nc1nc2c(s1)CN(C(=O)c1ccc(Cl)c(OC)n1)C2 [Example 421]		2 to 5 µM	
